The text below walks through data of patent publication US20090017010A1, “NOVEL ARTEMIS/DNA-DEPENDENT PROTEIN KINASE COMPLEX AND METHODS OF USE THEREOF” (University of Southern California, priority 2002, published 2009).

In one assay the test system is 20 bp hairpin (DFL16.1). The assay can be described thus: In vitro nuclease assay: hairpin opening by Artemis proteins. Format: biochemical. Here is the method:
(§1) Nuclease assays without RAGs were carried out in a total volume of 10 μL with a buffer composition of 25 mM Tris, pH 8.0, 10-50 mM NaCl or KCl, 10 mM MgCl2, 1 mM DTT, and 50 ng/μL of BSA unless otherwise specified. To the buffer mixture, Artemis was added to 2.75 pmol, and DNA-PKcs and Ku were added to 1.25 pmol each. 0.25 mM of ATP (or ADP, ATP-y-S, AMP-PNP) and […] of 35 bp DNA were included where DNA-PKcs was used. Reactions were incubated at 37° C. for 30 minutes. In reactions including DNA-PKcs inhibitors, reaction mixtures without the substrate were incubated on ice for 15 minutes before the addition of the substrate and the subsequent incubation at 37° C. In FIG. 7, pre-phosphorylation of Artemis-myc-His immunobeads was carried out under DNA-PK kinase assay conditions. After washing the treated immunobeads with buffer F for three times and the nuclease assay buffer for two times, the beads were used for the nuclease reactions. In the hairpin opening of RAG-generated hairpins (FIG. 8), the reactions contained 25 mM K-HEPES, pH 7.4, 50 mM KCl, 10 mM MgCl2, 1 mM DTT, 0.25 pmol of labeled 12-RSS double-stranded oligonucleotides (KY28/KY29) and an equal amount of unlabeled 23-RSS double-stranded oligonucleotides (KY36/KY37), 1 pmol of RAGs (assuming that the RAG complex consists of two RAG-1 and two RAG-2 subunits), 2 pmol of HMG1, 2.75 pmol of Artemis-myc-His, and 1.25 pmol of DNA-PKcs (with ATP and 35 bp DNA as described above). For the sequential reactions, substrates were incubated with RAG complex alone first at 37° C. for 60 minutes, extracted with or without phenol/chloroform, then Artemis-myc-His and DNA-PKcs were added, followed by another 30-minute incubation at 37° C. Reactions with the RAG complex, Artemis, and DNA-PKcs added simultaneously were incubated for 90 minutes at the same temperature. After incubation, reactions were stopped by adding an equal volume of formamide gel loading buffer and beating at 100° C. for 5 minutes. DNA was resolved on 12% denaturing polyacrylamide gels. […] Data was analyzed by ImageQuant software (v5.0). […]

For the next assay, the target named is dsDNA. To be noted: read-out: equilibrium binding affinity for dsDNA; cited from earlier work.
Another assay concerns the target T1, Artemis:DNA-PKcs complex (Homo sapiens, UniProt P78527).
T1 construct: Native DNA-PKcs was purified as described (Chan et al., 1996) except that HeLa cells were used as the source; made in house; host or cells: Artemis-myc-His: transfected 293T cells (Ni-NTA, then anti-myc immunobeads); DNA-PKcs: endogenous protein purified from HeLa cells
The assay can be described thus: In vitro nuclease assay: effect of a DNA-PKcs inhibitor and of ATP analogs on hairpin opening. To be noted: for effect of DNA-PKcs (conferring hairpin opening activity on Artemis) when analog is used instead of ATP: 1 mM ATP analog, DFL16.1 hairpin, FIG. 5B lanes 5, 6. Format: biochemical. Here is the method: as §1

pKd: −log10 of the molar value.

T1 sequence (P78527 whole entry): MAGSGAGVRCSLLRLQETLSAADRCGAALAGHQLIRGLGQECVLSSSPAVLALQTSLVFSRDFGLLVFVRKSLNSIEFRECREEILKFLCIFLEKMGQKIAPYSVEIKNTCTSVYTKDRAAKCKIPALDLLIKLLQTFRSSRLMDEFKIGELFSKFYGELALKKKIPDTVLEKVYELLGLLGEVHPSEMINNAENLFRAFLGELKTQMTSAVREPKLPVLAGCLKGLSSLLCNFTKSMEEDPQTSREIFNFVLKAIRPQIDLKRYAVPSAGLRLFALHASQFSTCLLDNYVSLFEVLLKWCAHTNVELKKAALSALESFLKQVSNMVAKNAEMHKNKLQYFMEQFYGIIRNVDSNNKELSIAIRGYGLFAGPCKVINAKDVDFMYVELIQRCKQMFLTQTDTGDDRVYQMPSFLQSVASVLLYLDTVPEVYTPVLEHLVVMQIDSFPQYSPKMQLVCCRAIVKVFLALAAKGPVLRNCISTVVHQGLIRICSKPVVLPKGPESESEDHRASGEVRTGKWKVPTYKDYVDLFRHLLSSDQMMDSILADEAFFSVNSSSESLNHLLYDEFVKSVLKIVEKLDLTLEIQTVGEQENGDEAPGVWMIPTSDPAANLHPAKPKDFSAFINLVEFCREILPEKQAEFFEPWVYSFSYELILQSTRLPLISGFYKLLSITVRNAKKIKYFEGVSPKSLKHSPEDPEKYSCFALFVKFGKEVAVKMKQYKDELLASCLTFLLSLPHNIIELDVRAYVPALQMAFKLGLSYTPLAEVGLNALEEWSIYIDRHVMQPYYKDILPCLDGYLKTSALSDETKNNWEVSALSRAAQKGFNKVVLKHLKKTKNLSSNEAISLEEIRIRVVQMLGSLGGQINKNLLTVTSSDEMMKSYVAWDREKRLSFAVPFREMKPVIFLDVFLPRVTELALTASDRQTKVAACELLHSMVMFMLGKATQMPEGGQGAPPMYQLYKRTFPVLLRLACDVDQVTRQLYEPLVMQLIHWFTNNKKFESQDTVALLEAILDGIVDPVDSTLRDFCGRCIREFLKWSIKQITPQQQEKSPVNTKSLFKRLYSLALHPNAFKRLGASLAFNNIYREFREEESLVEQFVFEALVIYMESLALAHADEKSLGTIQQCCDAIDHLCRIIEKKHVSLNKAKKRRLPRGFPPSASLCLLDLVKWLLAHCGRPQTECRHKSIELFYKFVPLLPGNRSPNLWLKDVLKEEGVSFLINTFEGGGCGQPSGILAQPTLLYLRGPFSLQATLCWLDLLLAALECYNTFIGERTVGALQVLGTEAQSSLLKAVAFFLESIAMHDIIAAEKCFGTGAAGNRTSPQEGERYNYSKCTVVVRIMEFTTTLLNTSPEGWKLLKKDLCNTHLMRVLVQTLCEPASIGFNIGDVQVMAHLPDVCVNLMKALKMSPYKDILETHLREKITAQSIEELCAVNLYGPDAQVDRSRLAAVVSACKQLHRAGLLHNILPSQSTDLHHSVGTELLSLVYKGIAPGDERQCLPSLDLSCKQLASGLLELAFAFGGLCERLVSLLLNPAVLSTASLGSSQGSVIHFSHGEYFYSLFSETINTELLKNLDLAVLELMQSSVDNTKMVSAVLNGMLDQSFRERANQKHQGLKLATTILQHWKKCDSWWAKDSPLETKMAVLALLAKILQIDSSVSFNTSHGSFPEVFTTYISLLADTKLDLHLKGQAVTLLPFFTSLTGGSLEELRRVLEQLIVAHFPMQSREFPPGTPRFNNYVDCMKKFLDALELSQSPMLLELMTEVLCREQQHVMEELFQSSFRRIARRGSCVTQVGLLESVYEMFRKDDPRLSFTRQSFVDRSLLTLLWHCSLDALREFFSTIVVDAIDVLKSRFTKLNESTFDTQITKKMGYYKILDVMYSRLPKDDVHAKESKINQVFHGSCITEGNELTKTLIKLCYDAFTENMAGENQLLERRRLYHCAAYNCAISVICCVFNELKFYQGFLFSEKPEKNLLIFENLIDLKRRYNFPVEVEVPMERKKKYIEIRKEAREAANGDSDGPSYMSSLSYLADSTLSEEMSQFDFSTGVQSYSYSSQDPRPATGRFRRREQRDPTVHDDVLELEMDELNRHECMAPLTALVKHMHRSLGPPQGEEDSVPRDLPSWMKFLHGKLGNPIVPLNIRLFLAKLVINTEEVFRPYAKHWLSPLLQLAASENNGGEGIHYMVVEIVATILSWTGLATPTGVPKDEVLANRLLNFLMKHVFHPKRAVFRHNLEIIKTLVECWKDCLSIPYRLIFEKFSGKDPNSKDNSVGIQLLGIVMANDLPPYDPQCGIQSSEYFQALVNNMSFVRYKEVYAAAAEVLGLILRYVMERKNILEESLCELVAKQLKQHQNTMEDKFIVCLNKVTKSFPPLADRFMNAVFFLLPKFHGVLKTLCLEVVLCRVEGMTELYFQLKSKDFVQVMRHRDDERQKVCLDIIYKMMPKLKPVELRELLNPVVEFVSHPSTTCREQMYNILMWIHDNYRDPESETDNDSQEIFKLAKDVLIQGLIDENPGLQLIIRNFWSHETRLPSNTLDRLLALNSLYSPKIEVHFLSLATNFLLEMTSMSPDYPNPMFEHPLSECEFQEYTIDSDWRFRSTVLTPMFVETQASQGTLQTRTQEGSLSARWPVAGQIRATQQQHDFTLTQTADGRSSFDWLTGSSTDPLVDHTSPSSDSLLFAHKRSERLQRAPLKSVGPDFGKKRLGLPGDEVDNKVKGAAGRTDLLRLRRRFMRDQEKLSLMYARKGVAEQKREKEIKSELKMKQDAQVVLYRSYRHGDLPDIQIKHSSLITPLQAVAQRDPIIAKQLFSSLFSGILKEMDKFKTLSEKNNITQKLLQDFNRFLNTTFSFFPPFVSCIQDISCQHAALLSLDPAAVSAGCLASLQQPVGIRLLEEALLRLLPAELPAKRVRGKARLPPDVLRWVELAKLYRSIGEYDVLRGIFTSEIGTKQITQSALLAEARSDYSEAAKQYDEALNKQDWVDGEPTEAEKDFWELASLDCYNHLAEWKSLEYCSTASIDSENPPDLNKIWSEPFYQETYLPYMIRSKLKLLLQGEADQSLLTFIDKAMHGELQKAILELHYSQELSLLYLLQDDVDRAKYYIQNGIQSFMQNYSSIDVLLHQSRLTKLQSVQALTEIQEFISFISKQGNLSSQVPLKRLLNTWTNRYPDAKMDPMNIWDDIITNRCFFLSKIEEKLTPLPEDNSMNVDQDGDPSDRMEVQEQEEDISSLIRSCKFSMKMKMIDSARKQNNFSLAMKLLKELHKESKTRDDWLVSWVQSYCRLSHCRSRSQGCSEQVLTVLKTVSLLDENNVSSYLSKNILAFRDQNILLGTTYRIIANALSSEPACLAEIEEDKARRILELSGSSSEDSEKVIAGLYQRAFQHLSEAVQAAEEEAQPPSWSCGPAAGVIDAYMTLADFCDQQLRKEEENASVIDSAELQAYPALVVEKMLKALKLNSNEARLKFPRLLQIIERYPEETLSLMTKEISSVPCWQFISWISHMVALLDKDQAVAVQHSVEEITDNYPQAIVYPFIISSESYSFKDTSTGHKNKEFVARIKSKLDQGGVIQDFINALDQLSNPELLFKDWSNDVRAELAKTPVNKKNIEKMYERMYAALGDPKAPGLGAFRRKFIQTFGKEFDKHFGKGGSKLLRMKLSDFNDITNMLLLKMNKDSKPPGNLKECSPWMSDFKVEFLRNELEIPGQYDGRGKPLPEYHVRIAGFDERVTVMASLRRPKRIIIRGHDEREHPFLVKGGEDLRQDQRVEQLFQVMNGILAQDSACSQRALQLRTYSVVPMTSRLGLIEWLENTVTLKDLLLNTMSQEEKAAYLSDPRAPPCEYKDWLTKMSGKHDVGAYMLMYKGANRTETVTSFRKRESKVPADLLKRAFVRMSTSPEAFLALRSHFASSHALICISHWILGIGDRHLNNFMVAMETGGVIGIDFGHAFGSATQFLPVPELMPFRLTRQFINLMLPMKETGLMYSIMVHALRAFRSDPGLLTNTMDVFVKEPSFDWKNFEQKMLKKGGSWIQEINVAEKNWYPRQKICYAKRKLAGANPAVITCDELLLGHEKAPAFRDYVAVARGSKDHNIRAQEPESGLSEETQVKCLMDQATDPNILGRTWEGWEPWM
T1 sequence (Q96SD1 whole entry partner): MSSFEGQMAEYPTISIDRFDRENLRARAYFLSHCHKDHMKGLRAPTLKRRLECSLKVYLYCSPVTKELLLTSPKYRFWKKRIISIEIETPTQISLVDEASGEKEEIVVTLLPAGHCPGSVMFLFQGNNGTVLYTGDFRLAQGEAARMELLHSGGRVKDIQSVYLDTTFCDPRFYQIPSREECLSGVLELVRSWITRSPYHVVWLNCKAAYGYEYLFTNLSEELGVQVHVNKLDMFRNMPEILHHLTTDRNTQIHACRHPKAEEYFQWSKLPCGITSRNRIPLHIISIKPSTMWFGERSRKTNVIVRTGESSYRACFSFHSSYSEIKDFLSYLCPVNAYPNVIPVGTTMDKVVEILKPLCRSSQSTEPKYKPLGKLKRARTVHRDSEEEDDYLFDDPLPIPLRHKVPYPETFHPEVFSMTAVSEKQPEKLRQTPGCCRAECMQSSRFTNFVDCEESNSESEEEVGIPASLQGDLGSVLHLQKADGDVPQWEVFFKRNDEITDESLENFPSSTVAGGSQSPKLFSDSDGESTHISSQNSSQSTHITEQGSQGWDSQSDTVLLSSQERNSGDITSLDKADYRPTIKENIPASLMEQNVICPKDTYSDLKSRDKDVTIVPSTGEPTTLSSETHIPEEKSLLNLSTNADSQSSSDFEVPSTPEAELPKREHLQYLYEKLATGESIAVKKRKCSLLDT

“Artemis: full-length human Artemis with C-terminal myc-His tag, expressed in 293T cells, used on immunobeads as the enzyme”: the hairpin opening result with 20 bp hairpin (DFL16.1) (Artemis alone, without DNA-PKcs, FIG. 5A lane 2) is “No hairpin opening”. The “hairpins opened during the time interval” value in the assay on 20 bp hairpin (DFL16.1) (with DNA-PKcs present, 37° C., 30 minutes, FIG. 5A lanes 4-6, said to be probably an underestimation) is “about 40%”.

“DNA-PKcs: native catalytic subunit of DNA-dependent protein kinase, 469 kDa, purified from HeLa cells”: the pKd at dsDNA was around 9.00.

Consider `Nc1ncnc2c1ncn2[C@@H]1O[C@H](COP(=O)(O)OP(=O)(O)OP(O)(O)=S)[C@@H](O)[C@H]1O` [ATP-γ-S], for which the “effect of DNA-PKcs (conferring hairpin opening activity on Artemis) when analog is used instead of ATP” value on Artemis:DNA-PKcs complex is “largely suppressed”.

For `Nc1ncnc2c1ncn2[C@@H]1O[C@H](COP(=O)(O)OP(=O)(O)NP(=O)(O)O)[C@@H](O)[C@H]1O` [AMP-PNP], the “effect of DNA-PKcs (conferring hairpin opening activity on Artemis) when analog is used instead of ATP” value on Artemis:DNA-PKcs complex is “largely suppressed”.

With `Nc1ncnc2c1ncn2[C@@H]1O[C@H](COP(=O)(O)OP(=O)(O)O)[C@@H](O)[C@H]1O` [ADP], the “endonucleolytic activity on hairpins and 5′ ends, relative to ATP” value at Artemis:DNA-PKcs complex (ADP instead of ATP, 20 bp artificial GC hairpin with 6-nucleotide 5′ overhang, FIG. 7 lane 3) was “lower level of endonucleolytic activity”.

For “D165N: D165N point mutant of Artemis, same expression vector as wild type”, the hairpin opening activity result with 20 bp hairpin (DFL16.1) (in the presence of DNA-PKcs) is “lacks any hairpin opening activity”.
